Data taken from patent US7906499B2, “Polycarboxylated porphyrins and use thereof in treatment of metal toxicities” (priority 2005, dated 2011).
Values joined by “and” are separate entries in the source; they are usually repeats but may differ in a detail not shown here. Equal entries are not always repeated.

Columns and labels:
[1] = Absorption spectroscopy of porphyrin intermediates on addition of metal (metal binding), +Zn; parameters: key to Cpor 500 nm peak, change after metal addition / Cpor 538 nm peak, change after metal addition / Cpor 560 nm peak, change after metal addition / Cpor 608 nm peak, change after metal addition / Upor 498 nm peak, change after metal addition / Upor 540 nm peak, change after metal addition / Upor 565 nm peak, change after metal addition / Upor 612 nm peak, change after metal addition: Dis; peak disappeared.; Inc; Peak increased.; Dec; peak decreased.; = indicates no difference from the control.; (a)indicates new peak
Description: (§1) In the determining step, the individual is identified as subject to or predisposed to a polycarboxylated porphyrin-binding metal toxicity. Polycarboxylated porphyrin-binding metal toxicities include metal toxicity from environmental exposure, and disorders characterized by disturbances in metal ion homeostasis, particularly disorders that result in metal ion accumulation. Examples of such disorders include Wilson's disease, in which copper transport is defective (e.g. Nakayama, 2000); aceruloplasminemia, an iron metabolism disorder (e.g. Miyajima, 2003); and diseases involving metal-facilitated protein aggregation such as zinc, copper, or iron facilitated-aggregation of Aβ in Alzheimer's disease (e.g. Atamna, 2004), and aluminum, copper, iron, cobalt, or manganese facilitated-aggregation of α-synuclein in Parkinson's disease (e.g. Uversky, 2001). Conventional spectroscopy assays (e.g. Beer, 2003) can be used to determine whether a given polycarboxylated porphyrin binds the toxic metal of interest (e.g. Example 2, below). In particular embodiments, the metal is selected from the group consisting of Al^+++, Hg^++, […], Cu^+, Mn^+, and Zn^++.
(§2) We studied the interaction between metals and porphyrin intermediates.

[2] = Absorption spectroscopy of porphyrin intermediates on addition of metal (metal binding), +Cu; parameters: key to Cpor 370 nm peak, change after metal addition / Cpor 500 nm peak, change after metal addition / Cpor 538 nm peak, change after metal addition / Cpor 560 nm peak, change after metal addition / Cpor 608 nm peak, change after metal addition / Upor 395 nm peak, change after metal addition / Upor 498 nm peak, change after metal addition / Upor 540 nm peak, change after metal addition / Upor 565 nm peak, change after metal addition / Upor 612 nm peak, change after metal addition: Dis; peak disappeared.; Inc; Peak increased.; Dec; peak decreased.; = indicates no difference from the control.; (a)indicates new peak
Description: as §1, §2

[3] = Absorption spectroscopy of porphyrin intermediates on addition of metal (metal binding), +Mn; parameters: key to Cpor 370 nm peak, change after metal addition / Cpor 500 nm peak, change after metal addition / Cpor 538 nm peak, change after metal addition / Cpor 560 nm peak, change after metal addition / Cpor 608 nm peak, change after metal addition / Upor 395 nm peak, change after metal addition / Upor 498 nm peak, change after metal addition / Upor 540 nm peak, change after metal addition / Upor 565 nm peak, change after metal addition / Upor 612 nm peak, change after metal addition: Dis; peak disappeared.; Inc; Peak increased.; Dec; peak decreased.; = indicates no difference from the control.; (a)indicates new peak
Description: as §1, §2

Aβ1-40 = Aβ1-40 (Homo sapiens, UniProt P05067); test: Dissolution / prevention of metal-induced Aβ aggregates (filtration, 6E10 immunodetection); type: biochemical; conditions: "we found", with reference to Atamna, 2004
Sequence of Aβ1-40 (P05067 672-711 limits assumed): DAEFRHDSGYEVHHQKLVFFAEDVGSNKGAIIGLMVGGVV
Description: Aβ1-40 (10 ng in 200 μl) aggregation is induced by incubation (30 min, RT) with ZnCl2 (25 μM in TBS, pH 7.4), CuCl2 (5 μM in TBS, pH 6.8), or acidic conditions (pH 5.5, MES buffered saline). Aggregates are transferred to a 0.2μ nylon membrane by filtration using a 96-well ELIFA apparatus (Pierce). The aggregates are then washed (200 μl/well) with TBS alone, TBS containing 2 μM EDTA (control), or TBS with uroproporphyrin or coproporphyrin at varying concentrations (0.1 μM-1 mM). The membrane is fixed, probed with the anti-Aβ monoclonal antibody 6E10 (Senetek), and developed for exposure to ECL film. Quantification of retained, aggregated Aβ is performed by densitometry, calibrated against known amounts of the peptide.
Because metals, such as Zn++ and Cu+, trigger the pathologic aggregation of Aβ, an important causal factor in Alzheimers disease, we tested the ability of endogenous prophyrins to prevent Aβ aggregation using published methodology. […] The effect of porphyrins on Aβ is likely mediated by their ability to chelate metals. […] Endogenous porphyrins can be used directly, or their synthesis can be triggered in tissue by applying their precursors and/or cofactors, for therapeutic purposes including the treatment and prevention of disorders that involve Aβ aggregation and/or metal toxicity. […]

Compound: O=C(O)CCC1=C(CC(=O)O)c2cc3[nH]c(cc4nc(cc5[nH]c(cc1n2)c(CC(=O)O)c5CCC(=O)O)C(CCC(=O)O)=C4CC(=O)O)c(CC(=O)O)c3CCC(=O)O [Upor, Uroporphyrin III]
- New peak after metal addition (marked a) [1]: 575a nm
- Upor 498 nm peak, change after metal addition [1]: Dis
- Upor 540 nm peak, change after metal addition [1]: Inc
- Upor 565 nm peak, change after metal addition [1]: Dis
- Upor 612 nm peak, change after metal addition [1]: Dis
- Upor 395 nm peak after metal addition (peak position) ([1]; control peak 395 nm): 405 nm
- New peak after metal addition (marked a) [2]: 525a nm
- Upor 395 nm peak, change after metal addition [2]: Inc
- Upor 498 nm peak, change after metal addition [2]: Dis
- Upor 540 nm peak, change after metal addition [2]: Dis
- Upor 565 nm peak, change after metal addition [2]: Inc
- Upor 612 nm peak, change after metal addition [2]: Dis
- New peak after metal addition (marked a) [3]: 460a nm and 545a nm and 575a nm
- Upor 395 nm peak, change after metal addition [3]: Inc
- Upor 498 nm peak, change after metal addition [3]: Dis
- Upor 540 nm peak, change after metal addition [3]: Dis
- Upor 565 nm peak, change after metal addition [3]: Dis
- Upor 612 nm peak, change after metal addition [3]: Dis

Compound: C=CC1=C(C)c2cc3[n-]c(cc4[n-]c(cc5nc(cc1n2)C(C)=C5C=C)c(C)c4CCC(=O)O)c(CCC(=O)O)c3C.[Fe+2] [heme]
- Displacement of metals from aggregated Aβ and disaggregation (Aβ1-40): displace metals from the aggregated Aβ and disaggregate the complex

Compound: Coproporphyrin III [Cpor]
- Cpor 500 nm peak, change after metal addition [1]: Dis
- Cpor 538 nm peak, change after metal addition [1]: Inc
- Cpor 560 nm peak, change after metal addition [1]: Inc
- Cpor 608 nm peak, change after metal addition [1]: Dis
- New peak after metal addition (marked a) [1]: 575a nm
- Cpor 370 nm peak after metal addition (peak position) ([1]; control peak 370 nm): 400 nm
- Cpor 370 nm peak, change after metal addition [2]: =
- Cpor 500 nm peak, change after metal addition [2]: =
- Cpor 538 nm peak, change after metal addition [2]: Dec
- Cpor 560 nm peak, change after metal addition [2]: Dec
- Cpor 608 nm peak, change after metal addition [2]: Dis
- New peak after metal addition (marked a) [2]: 525a nm
- Cpor 370 nm peak, change after metal addition [3]: =
- Cpor 500 nm peak, change after metal addition [3]: =
- Cpor 538 nm peak, change after metal addition [3]: =
- Cpor 560 nm peak, change after metal addition [3]: =
- Cpor 608 nm peak, change after metal addition [3]: =
